Test results: ChEMBL document CHEMBL4308841, “Synthesis, in vitro antiproliferative activity, and kinase inhibitory effects of pyrazole-containing diarylureas and diarylamides” (Eur J Med Chem, 2018)

Key:
Assay type in all cases: functional
[1] = tested on: OVCAR-4; test: Growth inhibition of human OVCAR4 cells assessed as cell growth at 10 uM incubated for 48 hrs by sulforhodamine B assay relative to control; conditions: OVCAR-4, 48 h, read-out: Activity
[2] = tested on: RXF 393; test: Growth inhibition of human RXF393 cells assessed as cell growth at 10 uM incubated for 48 hrs by sulforhodamine B assay relative to control; conditions: RXF 393, 48 h, read-out: Activity
[3] = tested on: ACHN; test: Growth inhibition of human ACHN cells assessed as cell growth at 10 uM incubated for 48 hrs by sulforhodamine B assay relative to control; conditions: read-out: Activity
[4] = tested on: SK-OV-3; test: Growth inhibition of human SKOV3 cells assessed as cell growth at 10 uM incubated for 48 hrs by sulforhodamine B assay relative to control; conditions: SK-OV-3, 48 h, read-out: Activity
[5] = tested on: UACC-257; test: Growth inhibition of human UACC257 cells assessed as cell growth at 10 uM incubated for 48 hrs by sulforhodamine B assay relative to control; conditions: UACC-257, 48 h, read-out: Activity
[6] = tested on: OVCAR-3; test: Growth inhibition of human OVCAR3 cells assessed as cell growth at 10 uM incubated for 48 hrs by sulforhodamine B assay relative to control; conditions: OVCAR-3, 48 h, read-out: Activity
[7] = tested on: HCC 2998; test: Growth inhibition of human HCC2998 cells assessed as cell growth at 10 uM incubated for 48 hrs by sulforhodamine B assay relative to control; conditions: HCC 2998, 48 h, read-out: Activity
[8] = tested on: SN12C; test: Growth inhibition of human SN12C cells assessed as cell growth at 10 uM incubated for 48 hrs by sulforhodamine B assay relative to control; conditions: read-out: Activity
[9] = tested on: NCI/ADR-RES; test: Growth inhibition of human NCI/ADR-RES cells assessed as cell growth at 10 uM incubated for 48 hrs by sulforhodamine B assay relative to control; conditions: read-out: Activity
[10] = tested on: A549; test: Growth inhibition of human A549/ATCC cells assessed as cell growth at 10 uM incubated for 48 hrs by sulforhodamine B assay relative to control; conditions: A549, 48 h, read-out: Activity
[11] = tested on: MDA-MB-435; test: Growth inhibition of human MDA-MB-435 cells assessed as cell growth at 10 uM incubated for 48 hrs by sulforhodamine B assay relative to control; conditions: MDA-MB-435, 48 h, read-out: Activity
[12] = tested on: T47D; test: Growth inhibition of human T47D cells assessed as cell growth at 10 uM incubated for 48 hrs by sulforhodamine B assay relative to control; conditions: read-out: Activity
[13] = tested on: A498; test: Growth inhibition of human A498 cells assessed as cell growth at 10 uM incubated for 48 hrs by sulforhodamine B assay relative to control; conditions: A498, 48 h, read-out: Activity
[14] = tested on: Hs-578T; test: Growth inhibition of human Hs578T cells assessed as cell growth at 10 uM incubated for 48 hrs by sulforhodamine B assay relative to control; conditions: read-out: Activity
[15] = tested on: SNB-19; test: Growth inhibition of human SNB19 cells assessed as cell growth at 10 uM incubated for 48 hrs by sulforhodamine B assay relative to control; conditions: SNB-19, 48 h, read-out: Activity
[16] = tested on: CAKI-1; test: Growth inhibition of human Caki1 cells assessed as cell growth at 10 uM incubated for 48 hrs by sulforhodamine B assay relative to control; conditions: CAKI-1, 48 h, read-out: Activity
[17] = tested on: HL-60(TB); test: Growth inhibition of human HL-60(TB) cells assessed as cell growth at 10 uM incubated for 48 hrs by sulforhodamine B assay relative to control; conditions: HL-60, 48 h, read-out: Activity
[18] = tested on: MCF7; test: Growth inhibition of human MCF7 cells assessed as cell growth at 10 uM incubated for 48 hrs by sulforhodamine B assay relative to control; conditions: MCF7, 48 h, read-out: Activity
[19] = tested on: SNB-75; test: Growth inhibition of human SNB75 cells assessed as cell growth at 10 uM incubated for 48 hrs by sulforhodamine B assay relative to control; conditions: SNB-75, 48 h, read-out: Activity
[20] = tested on: UACC-62; test: Growth inhibition of human UACC62 cells assessed as cell growth at 10 uM incubated for 48 hrs by sulforhodamine B assay relative to control; conditions: UACC-62, 48 h, read-out: Activity
[21] = tested on: OVCAR-5; test: Growth inhibition of human OVCAR5 cells assessed as cell growth at 10 uM incubated for 48 hrs by sulforhodamine B assay relative to control; conditions: OVCAR-5, 48 h, read-out: Activity
[22] = tested on: OVCAR-8; test: Growth inhibition of human OVCAR8 cells assessed as cell growth at 10 uM incubated for 48 hrs by sulforhodamine B assay relative to control; conditions: OVCAR-8, 48 h, read-out: Activity
[23] = tested on: SF-268; test: Growth inhibition of human SF268 cells assessed as cell growth at 10 uM incubated for 48 hrs by sulforhodamine B assay relative to control; conditions: SF-268, 48 h, read-out: Activity
[24] = tested on: SF-295; test: Growth inhibition of human SF295 cells assessed as cell growth at 10 uM incubated for 48 hrs by sulforhodamine B assay relative to control; conditions: SF-295, 48 h, read-out: Activity
[25] = tested on: DU-145; test: Growth inhibition of human DU145 cells assessed as cell growth at 10 uM incubated for 48 hrs by sulforhodamine B assay relative to control; conditions: DU-145, 48 h, read-out: Activity
[26] = tested on: RPMI-8226; test: Growth inhibition of human RPMI8226 cells assessed as cell growth at 10 uM incubated for 48 hrs by sulforhodamine B assay relative to control; conditions: RPMI-8226, 48 h, read-out: Activity
[27] = tested on: MOLT-4; test: Growth inhibition of human MOLT4 cells assessed as cell growth at 10 uM incubated for 48 hrs by sulforhodamine B assay relative to control; conditions: MOLT-4, 48 h, read-out: Activity
[28] = tested on: 786-0; test: Growth inhibition of human 786-0 cells assessed as cell growth at 10 uM incubated for 48 hrs by sulforhodamine B assay relative to control; conditions: 786-0, 48 h, read-out: Activity
[29] = tested on: NCI-H226; test: Growth inhibition of human NCI-H226 cells assessed as cell growth at 10 uM incubated for 48 hrs by sulforhodamine B assay relative to control; conditions: NCI-H226, 48 h, read-out: Activity
[30] = tested on: SW-620; test: Growth inhibition of human SW620 cells assessed as cell growth at 10 uM incubated for 48 hrs by sulforhodamine B assay relative to control; conditions: SW-620, 48 h, read-out: Activity
[31] = tested on: IGROV-1; test: Growth inhibition of human IGROV1 cells assessed as cell growth at 10 uM incubated for 48 hrs by sulforhodamine B assay relative to control; conditions: IGROV-1, 48 h, read-out: Activity
[32] = tested on: SR; test: Growth inhibition of human SR cells assessed as cell growth at 10 uM incubated for 48 hrs by sulforhodamine B assay relative to control; conditions: read-out: Activity
[33] = tested on: U-251; test: Growth inhibition of human U251 cells assessed as cell growth at 10 uM incubated for 48 hrs by sulforhodamine B assay relative to control; conditions: U-251, 48 h, read-out: Activity

SMILES	growth at 10 µM [1] [%]	growth at 10 µM [2] [%]	growth at 10 µM [3] [%]	growth at 10 µM [4] [%]	growth at 10 µM [5] [%]	growth at 10 µM [6] [%]	growth at 10 µM [7] [%]	growth at 10 µM [8] [%]	growth at 10 µM [9] [%]	growth at 10 µM [10] [%]	growth at 10 µM [11] [%]	growth at 10 µM [12] [%]	growth at 10 µM [13] [%]	growth at 10 µM [14] [%]	growth at 10 µM [15] [%]	growth at 10 µM [16] [%]	growth at 10 µM [17] [%]	growth at 10 µM [18] [%]	growth at 10 µM [19] [%]	growth at 10 µM [20] [%]	further results
O=C(Nc1cccc(-n2cc(-c3ccncc3)c(-c3cc(O)cc(Cl)c3)n2)c1)c1cc(C(F)(F)F)cc(C(F)(F)F)c1	59.6	-10.3	37.7	68.8	71	15.2	28.9	50.3	46.9	27.3	45.6	26.3	40.3	65.9	63.1	58.5	21.4	23	52.7	69.3	growth at 10 µM [21]: 70.7%; growth at 10 µM [22]: 39.6%; growth at 10 µM [23]: 69.3%; growth at 10 µM [24]: 15%; growth at 10 µM [25]: 62.1%; growth at 10 µM [26]: 32.1%; growth at 10 µM [27]: 19.5%; growth at 10 µM [28]: 55.1%; growth at 10 µM [29]: 96%; growth at 10 µM [30]: 61%; growth at 10 µM [31]: 73%; growth at 10 µM [32]: 3.15%; growth at 10 µM [33]: 37.2%
O=C(Nc1cccc(-n2cc(-c3ccncc3)c(-c3cc(O)cc(Cl)c3)n2)c1)Nc1ccc(Cl)c(C(F)(F)F)c1	31.6	-49.5	21.3	63.1	-40	1.88	34.3	34.6	41.5	8.81	9.57	25	21.5	21.7	44.5	29.1	-26.9	13.4	24.1	-1.44	growth at 10 µM [21]: 59.3%; growth at 10 µM [22]: 3.69%; growth at 10 µM [23]: 42.1%; growth at 10 µM [24]: 14.3%; growth at 10 µM [25]: 18.7%; growth at 10 µM [26]: 13.8%; growth at 10 µM [27]: -18%; growth at 10 µM [28]: -29.8%; growth at 10 µM [29]: 41.2%; growth at 10 µM [30]: -33.6%; growth at 10 µM [31]: 30.6%; growth at 10 µM [32]: -30.6%; growth at 10 µM [33]: -26.5%
COc1cc(Cl)cc(-c2nn(-c3cccc(NC(=O)c4cc(C(F)(F)F)cc(C(F)(F)F)c4)c3)cc2-c2ccncc2)c1	72.1	67.7	58.2	83.4	79.3	25.5	78.3	69.8	67.8	43.5	80	53.4	-1.74	81.1	86.4	68.6	84.3	57.8	60.8	81.4	growth at 10 µM [21]: 83%; growth at 10 µM [22]: 55.4%; growth at 10 µM [23]: 89.2%; growth at 10 µM [24]: 42.1%; growth at 10 µM [25]: 78.2%; growth at 10 µM [26]: 43.6%; growth at 10 µM [27]: 55.3%; growth at 10 µM [28]: 80.2%; growth at 10 µM [29]: 76%; growth at 10 µM [30]: 86.2%; growth at 10 µM [31]: 100%; growth at 10 µM [32]: 41%; growth at 10 µM [33]: 60.7%
COc1cc(Cl)cc(-c2nn(-c3cccc(NC(=O)c4cccc(C(F)(F)F)c4)c3)cc2-c2ccncc2)c1	71.8	40.5	48.1	81.6	68.7	52.3	54.6	65.8	46.6	39.1	65.6	36.6	21.2	62.2	82.2	54	67.3	39.4	53.9	74.5	growth at 10 µM [21]: 84%; growth at 10 µM [22]: 42%; growth at 10 µM [23]: 77.3%; growth at 10 µM [24]: 37.9%; growth at 10 µM [25]: 83.8%; growth at 10 µM [26]: 31.5%; growth at 10 µM [27]: 29%; growth at 10 µM [28]: 66.6%; growth at 10 µM [29]: 69%; growth at 10 µM [30]: 77%; growth at 10 µM [31]: 80.7%; growth at 10 µM [32]: 29.1%; growth at 10 µM [33]: 49.2%
COc1cc(Cl)cc(-c2nn(-c3cccc(NC(=O)Nc4cccc(C(F)(F)F)c4)c3)cc2-c2ccncc2)c1	3.28	11.8	5.44	14.2	-11.7	-0.41	19	13.9	3.58	8.08	-20.9	-0.45	-6.74	23.1	16.1	16.1	-7.89	0.3	12.5	-11.5	growth at 10 µM [21]: 34.1%; growth at 10 µM [22]: -12.3%; growth at 10 µM [23]: 27.9%; growth at 10 µM [24]: -7.87%; growth at 10 µM [25]: 15.9%; growth at 10 µM [26]: -14.2%; growth at 10 µM [27]: -9.16%; growth at 10 µM [28]: 13.2%; growth at 10 µM [29]: 3.94%; growth at 10 µM [30]: 11.2%; growth at 10 µM [31]: 28.9%; growth at 10 µM [32]: -13.5%; growth at 10 µM [33]: 4.59%
